Measurements: PubChem BioAssay (NCI)
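48-hour exposure; five concentrations; linearly interpolated endpoints. The concentration for 50% growth inhibition is given as GI50. The concentration for full growth arrest is given as TGI.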

Columns and labels:
Test in all cases: DTP human tumour cell line panel, 48 h
MDA-MB-231 breast = tested on: MDA-MB-231 breast
MALME-3M melanoma = tested on: MALME-3M melanoma
RPMI-8226 leukemia = tested on: RPMI-8226 leukemia
SF-268 CNS = tested on: SF-268 CNS
CCRF-CEM leukemia = tested on: CCRF-CEM leukemia
HL-60(TB) leukemia = tested on: HL-60(TB) leukemia
MOLT-4 leukemia = tested on: MOLT-4 leukemia
HS 578T breast = tested on: HS 578T breast
SF-295 CNS = tested on: SF-295 CNS
786-0 renal = tested on: 786-0 renal
UACC-257 melanoma = tested on: UACC-257 melanoma
MDA-MB-435 = tested on: MDA-MB-435
OVCAR-3 ovarian = tested on: OVCAR-3 ovarian
ACHN renal = tested on: ACHN renal
A549 NSCLC = tested on: A549 NSCLC
K-562 leukemia = tested on: K-562 leukemia
COLO 205 colon = tested on: COLO 205 colon
RXF 393 renal = tested on: RXF 393 renal
KM12 colon = tested on: KM12 colon
MCF7 breast = tested on: MCF7 breast
NCI-H460 lung = tested on: NCI-H460 lung
NCI-H23 lung = tested on: NCI-H23 lung
SW-620 colon = tested on: SW-620 colon
OVCAR-8 ovarian = tested on: OVCAR-8 ovarian
NCI/ADR-RES ovarian = tested on: NCI/ADR-RES ovarian
UO-31 renal = tested on: UO-31 renal
HOP-92 NSCLC = tested on: HOP-92 NSCLC
IGROV1 ovarian = tested on: IGROV1 ovarian
HOP-62 NSCLC = tested on: HOP-62 NSCLC
OVCAR-4 ovarian = tested on: OVCAR-4 ovarian
T-47D breast = tested on: T-47D breast
BT-549 breast = tested on: BT-549 breast
HCC-2998 colon = tested on: HCC-2998 colon
M14 melanoma = tested on: M14 melanoma
PC-3 prostate = tested on: PC-3 prostate
SN12C renal = tested on: SN12C renal
SK-MEL-2 melanoma = tested on: SK-MEL-2 melanoma
HCT-116 colon = tested on: HCT-116 colon
HT29 colon = tested on: HT29 colon
NCI-H522 lung = tested on: NCI-H522 lung
OVCAR-5 ovarian = tested on: OVCAR-5 ovarian
SK-MEL-28 melanoma = tested on: SK-MEL-28 melanoma
CAKI-1 renal = tested on: CAKI-1 renal
A498 renal = tested on: A498 renal
SF-539 CNS = tested on: SF-539 CNS
NCI-H226 lung = tested on: NCI-H226 lung
HCT-15 colon = tested on: HCT-15 colon
EKVX NSCLC = tested on: EKVX NSCLC
U251 CNS = tested on: U251 CNS
LOX IMVI melanoma = tested on: LOX IMVI melanoma
SK-MEL-5 melanoma = tested on: SK-MEL-5 melanoma
SNB-19 CNS = tested on: SNB-19 CNS
TK-10 renal = tested on: TK-10 renal
DU-145 prostate = tested on: DU-145 prostate
UACC-62 melanoma = tested on: UACC-62 melanoma
SK-OV-3 ovarian = tested on: SK-OV-3 ovarian

C=C1C(=O)O[C@H]2[C@H]1CC/C(COC(=O)NCc1ccc(Cn3c(=O)sn(CCCI)c3=O)cc1)=C\CC[C@@]1(C)O[C@@H]21
GI50 (MDA-MB-231 breast): 1.75 µM | TGI (MDA-MB-231 breast): 3.56 µM | GI50 (MALME-3M melanoma): 1.39 µM | TGI (MALME-3M melanoma): 3.21 µM | GI50 (RPMI-8226 leukemia): 0.899 µM | TGI (RPMI-8226 leukemia): 3.57 µM | GI50 (SF-268 CNS): 2.54 µM | TGI (SF-268 CNS): 7.41 µM | GI50 (CCRF-CEM leukemia): 0.314 µM | TGI (CCRF-CEM leukemia): 2.18 µM | GI50 (HL-60(TB) leukemia): 0.307 µM | TGI (HL-60(TB) leukemia): 2.71 µM | GI50 (MOLT-4 leukemia): 0.294 µM | TGI (MOLT-4 leukemia): 3.19 µM | GI50 (HS 578T breast): 3.17 µM | TGI (HS 578T breast): 14.5 µM | GI50 (SF-295 CNS): 14.4 µM | TGI (SF-295 CNS): 30.8 µM | GI50 (786-0 renal): 1.68 µM | TGI (786-0 renal): 3.71 µM | GI50 (UACC-257 melanoma): 1.79 µM | TGI (UACC-257 melanoma): 3.67 µM | GI50 (MDA-MB-435): 1.68 µM | TGI (MDA-MB-435): 3.3 µM | GI50 (OVCAR-3 ovarian): 1.19 µM | TGI (OVCAR-3 ovarian): 2.43 µM | GI50 (ACHN renal): 1.7 µM | TGI (ACHN renal): 3.19 µM | GI50 (A549 NSCLC): 11.2 µM | TGI (A549 NSCLC): 25.3 µM | GI50 (K-562 leukemia): 0.342 µM | TGI (K-562 leukemia): > 100 µM | GI50 (COLO 205 colon): 1.95 µM | TGI (COLO 205 colon): 3.66 µM | GI50 (RXF 393 renal): 1.52 µM | TGI (RXF 393 renal): 2.95 µM | GI50 (KM12 colon): 7.98 µM | TGI (KM12 colon): 24.8 µM | GI50 (MCF7 breast): 1.41 µM | TGI (MCF7 breast): 3.24 µM | GI50 (NCI-H460 lung): 3.2 µM | TGI (NCI-H460 lung): 10.3 µM | GI50 (NCI-H23 lung): 2.11 µM | TGI (NCI-H23 lung): 4.91 µM | GI50 (SW-620 colon): 1.4 µM | TGI (SW-620 colon): 3.17 µM | GI50 (OVCAR-8 ovarian): 3.04 µM | TGI (OVCAR-8 ovarian): 9.87 µM | GI50 (NCI/ADR-RES ovarian): 28.1 µM | TGI (NCI/ADR-RES ovarian): > 100 µM | GI50 (UO-31 renal): 1.52 µM | TGI (UO-31 renal): 2.94 µM | GI50 (HOP-92 NSCLC): 1.22 µM | TGI (HOP-92 NSCLC): 2.83 µM | GI50 (IGROV1 ovarian): 1.75 µM | TGI (IGROV1 ovarian): 3.84 µM | GI50 (HOP-62 NSCLC): 13.5 µM | TGI (HOP-62 NSCLC): 27.4 µM | GI50 (OVCAR-4 ovarian): 1.46 µM | TGI (OVCAR-4 ovarian): 3.11 µM | GI50 (T-47D breast): 1.79 µM | TGI (T-47D breast): 3.84 µM | GI50 (BT-549 breast): 1.37 µM | TGI (BT-549 breast): 2.84 µM | GI50 (HCC-2998 colon): 1.96 µM | TGI (HCC-2998 colon): 3.71 µM | GI50 (M14 melanoma): 1.74 µM | TGI (M14 melanoma): 4.69 µM | GI50 (PC-3 prostate): 1.94 µM | TGI (PC-3 prostate): 4.4 µM | GI50 (SN12C renal): 1.57 µM | TGI (SN12C renal): 3.62 µM | GI50 (SK-MEL-2 melanoma): 2.42 µM | TGI (SK-MEL-2 melanoma): 7.19 µM | GI50 (HCT-116 colon): 1.05 µM | TGI (HCT-116 colon): 2.57 µM | GI50 (HT29 colon): 1.74 µM | TGI (HT29 colon): 3.31 µM | GI50 (NCI-H522 lung): 1.07 µM | TGI (NCI-H522 lung): 2.39 µM | GI50 (OVCAR-5 ovarian): 1.85 µM | TGI (OVCAR-5 ovarian): 4.17 µM | GI50 (SK-MEL-28 melanoma): 1.92 µM | TGI (SK-MEL-28 melanoma): 3.79 µM | GI50 (CAKI-1 renal): 1.7 µM | TGI (CAKI-1 renal): 3.29 µM | GI50 (A498 renal): 4.85 µM | TGI (A498 renal): 16.8 µM | GI50 (SF-539 CNS): 1.71 µM | TGI (SF-539 CNS): 3.34 µM | GI50 (NCI-H226 lung): 14.1 µM | TGI (NCI-H226 lung): 37.7 µM | GI50 (HCT-15 colon): 1.89 µM | TGI (HCT-15 colon): 3.68 µM | GI50 (EKVX NSCLC): 2.09 µM | TGI (EKVX NSCLC): 6.77 µM | GI50 (U251 CNS): 1.75 µM | TGI (U251 CNS): 3.68 µM | GI50 (LOX IMVI melanoma): 1.4 µM | TGI (LOX IMVI melanoma): 2.81 µM | GI50 (SK-MEL-5 melanoma): 1.91 µM | TGI (SK-MEL-5 melanoma): 3.55 µM | GI50 (SNB-19 CNS): 3.12 µM | TGI (SNB-19 CNS): 13.8 µM | GI50 (TK-10 renal): 1.71 µM | TGI (TK-10 renal): 3.35 µM | GI50 (DU-145 prostate): 1.74 µM | TGI (DU-145 prostate): 3.16 µM | GI50 (UACC-62 melanoma): 1.41 µM | TGI (UACC-62 melanoma): 2.88 µM | GI50 (SK-OV-3 ovarian): 13.6 µM | TGI (SK-OV-3 ovarian): 28.3 µM
